Laboratory results taken from PMC9138683, “Decoding the Role of Melatonin Structure on Plasmodium falciparum Human Malaria Parasites Synchronization Using 2-Sulfenylindoles Derivatives” (Biomolecules, 2022).
“Also recorded” adds a separate entry of the source. Where two headings read alike, the source gives them in different places.

Experiments:
[1] = test system: Plasmodium falciparum 3D7 (chloroquine-sensitive); experiment: In vitro drug susceptibility assay, 3D7 strain (flow cytometry, SYBR Green I / MitoTracker Deep Red); type: cell-based; settings: read-out: IC50 ± SD Pf3D7
Procedure: (§1) The cultures were maintained under an atmosphere of 5% CO2, 5% O2, and 90% N2. Fresh complete medium was provided daily, and rapid-stained (Panotico) blood smears were examined.
(§2) To evaluate the effects of synthetic compounds on the intraerythrocytic development of P. falciparum, we analyzed parasitemia by flow cytometry with 0.3% initial parasitemia and 1% hematocrit in the assay. Plates were incubated with the compounds at concentrations ranging from 0.10 to 100 µM for 72 h. Dual staining with SYBR Green I (SG-I) (Invitrogen, Waltham, MA, USA) and MitoTracker Deep Red (MT-Red) (Invitrogen) were used to label nucleic acids and mitochondria, respectively. Approximately 10,000 cells were counted by an Accuri C6 (Becton Dickinson, San Jose, CA, USA) and analyzed by FlowJo 5 software. Parasitemia was determined from the analysis of dot plots (side scatter versus fluorescence).
(§3) We determined the susceptibility of P. falciparum to the indole compounds and investigated whether CQR parasites responded differently to the compounds. […] We determined the IC50 values for each compound by analyzing viable and non-viable parasites after compound treatment, represented in dot plots (Figure 1H).

[2] = test system: Plasmodium falciparum Dd2 (chloroquine-resistant); experiment: In vitro drug susceptibility assay, Dd2 strain (flow cytometry, SYBR Green I / MitoTracker Deep Red); type: cell-based; settings: read-out: IC50 ± SD PfDd2
Procedure: as §1, §2, §3

Cytotoxicity assay (MTT) = type: cell-based, human; settings: human, HEK293T (HEK293) cells, 0.10-100 µM, read-out: CC50 ± SD HEK293
Procedure: HEK293T (human embryonic kidney) cells were cultured in 75 cm^2 vented tissue culture flasks (Greiner Bio-One, Frickenhausen, Germany) at 37 °C in a humidified atmosphere containing 5% CO2 in Dulbecco’s modified […] (Gibco) supplemented with 10% (v/v) fetal bovine serum (Gibco), 100 U/mL penicillin, and 100 μg/mL streptomycin (Sigma). Cytotoxicity was evaluated with the 4,5-dimethylthiazol-2-yl-2,5-diphenyltetrazolium bromide (MTT) cell proliferation assay. Briefly, 10^4 cells/well were seeded in flat-bottom 96-well plates in complete DMEM medium for 24 h, followed by incubation with different concentrations of each compound (0.10–100 µM) for 72 h. DMSO (0.13%) and digitonin were used as the negative and positive controls, respectively. The concentrations of DMSO chosen as control were the concentration present in the tested compounds (from 0.0001% to 0.12%, two-fold dilution). After 72 h, cells were then incubated with the MTT reagent for 3 h, and absorbance was measured at 570 nm using a FlexStation® 3 Multi-Mode Microplate Reader (Molecular Devices, Sunnyvale, CA, USA). Moreover, we calculated the selectivity indexes (SI) to understand whether the compounds were more toxic to parasites than cells, or vice versa, according to the ratio of the CC50 value to the IC50 value for each compound.
We further assessed the toxicity of 2-sulfenylindole compounds against HEK293 cells using the MTT assay with different concentrations of the compounds for 72 h. Table 1 presents all the toxicity data and summarizes the IC50 values of the compounds evaluated in this study for Dd2 and 3D7 strains.

[3] = test system: P. falciparum 3D7 parasites; experiment: Effects of indole derivatives (500 nM) on parasitemia; type: cell-based, Plasmodium falciparum; settings: for effect on parasitemia (in words): 500 nM compound alone, 3D7 asynchronous, 48 h; for activity at 0.5 µM: Plasmodium falciparum, normalized to DMSO control, read-out: Parasitemia (%) Treatment with compound (500nM); for activity at 0.5 µM / decrease in parasitemia / increase in parasitemia: 3D7, 48 h; for decrease in parasitemia / increase in parasitemia: 500 nM compound; for decrease in parasitemia: compared to DMSO control; for increase in parasitemia: compared to DMSO control (100.6%)
Procedure: (§4) To evaluate the role of the compounds in parasitemia, 1% 3D7 parasites in 2% hematocrit were incubated for 48 h with 500 nM of the 2-sulfenylindole derivatives. Melatonin (100 nM) was used as a positive control, and DMSO (0.0013% v/v) was used as a negative control. The concentration of DMSO chosen as control was the concentration present in the tested compounds at 500 nM. The activity of the compounds was measured by SG-I and MT-Red staining. The data obtained were normalized to those of the control (DMSO). Additionally, to test the ability of the compounds to affect melatonin activity in parasitemia, 3D7 parasites were incubated with 500 nM indole compounds along with 100 nM melatonin for 48 h.
After incubation, the final parasitemia was determined using flow cytometry.

[4] = test system: P. falciparum 3D7 parasites; experiment: Effect of 2-sulfenylindoles in combination with 100 nM melatonin on parasitemia; type: cell-based, Plasmodium falciparum; settings: 3D7, 48 h; for Parasitemia (%) Treatment with compound (500nM) + Melatonin (100nM): normalized to DMSO control
Procedure: as §4
Following the assumption that compounds resembling melatonin structure might interact through the melatonin signaling pathways, we evaluated the effect of the compounds on melatonin action on parasitemia. Our next step was to study the combination of 2-sulfenylindoles with melatonin in asynchronous 3D7 by incubating parasites simultaneously with 100 nM melatonin and 500 nM of each compound.

P. falciparum 3D7 strain = experiment: Blood-stage development evaluation by microscopy; type: cell-based, Plasmodium falciparum; settings: ring-stage synchronized 3D7, treated at IC50 (30 µM for 20 and 28), monitored every 12 h
Procedure: Ring-stage parasites (10–14 h) at 1% parasitemia in 2% hematocrit were treated with compound 20 and compound 28 at concentrations of 1 and 30 µM in 24-well plates for 48 h. Treatment with chloroquine (20 nM) and DMSO (0.1%) was used as positive and negative controls. Smears were rapid stained (Panotico) every 12 h after treatment (12, 24, 36, 48, and 60 h time points), and we took images of parasites to assess the blood-stage development (Zeiss, Oberkochen, Germany).
During monitoring, parasites continued to develop throughout the cycle in the presence of both compounds. […] To examine its stage specificity, we monitored development every 12 h.
Figure 5 Parasitemia reduction with compound 20 (A) and compound 28 (B) to determine the stage activity. Data are means ± SD. Ring-stage synchronized parasites with sorbitol 5% were treated with chloroquine (20 nM), compound 20 (30 µM), and compound 28 (30 µM). The chosen treatment concentration was the IC50 values obtained for these compounds against the 3D7 parasites. (C) After drug administration, smears of P. falciparum 3D7 strain were taken at 0, 12, 24, 36, 48, and 60 h after drug administration, observing the growth development of treated parasites. * p ≤ 0.05, ** p ≤ 0.01, *** p ≤ 0.001.

[5] = Plasmodium falciparum, 3D7, 72 h, asynchronous parasites, 72 h, 0.1-100 µM
[6] = asynchronous parasites, 72 h, 0.1-100 µM
[7] = Plasmodium falciparum, DD2, 72 h, asynchronous parasites, 72 h, 0.1-100 µM
[8] = 500 nM compound + 100 nM melatonin

## CCN(CC)CCCC(C)Nc1ccnc2cc(Cl)ccc12 (stereo not shown) [Chloroquine, reference compound]
[1]; Plasmodium falciparum, 3D7, 72 h
  IC50: 0.0223 ± 0.00417 µM
[2]; Plasmodium falciparum, DD2, 72 h
  IC50: 0.199 ± 0.0262 µM

## COC(=O)Cc1c(Sc2ccccc2)[nH]c2ccccc12 [Compound 3]
[1]; [5]
  IC50: < 20 µM
[1]; [6]
  IC50: 10.6 ± 5.19 µM
[2]; [7]
  IC50: < 20 µM
[2]; [6]
  IC50: 18 ± 1.72 µM
Cytotoxicity assay (MTT)
  CC50 at 72 h: 15.2 ± 1.36 µM
[3]
  effect on parasitemia (in words): no increase was observed
  activity at 0.5 µM: 98.2 ± 2.28%
[4]; [8]
  effect on melatonin action on parasitemia (in words): slight increase in parasitemia
[4]
  Parasitemia (%) Treatment with compound (500nM) + Melatonin (100nM): 129.8 ± 6.78%
P. falciparum 3D7 strain
  stage-specific effect on blood-stage development: reduced the progress from rings to trophozoites; also recorded: affect ring to trophozoite progression

## COC(=O)Cc1c(Sc2cccc(O)c2)[nH]c2ccccc12 [Compound 7]
[1]; [5]
  IC50: 58.2 ± 2.45 µM
[2]; [7]
  IC50: 55.4 ± 2.96 µM
Cytotoxicity assay (MTT)
  CC50 at 72 h: 31.6 ± 4.03 µM
[3]
  decrease in parasitemia: 4.05%
  activity at 0.5 µM: 96.5 ± 2.39%
[4]; 500 nM compound + 100 nM melatonin, versus control group (100.7%)
  increase in parasitemia compared to control group: 22.2%
[4]
  Parasitemia (%) Treatment with compound (500nM) + Melatonin (100nM): 122.9 ± 5.60%

## COC(=O)Cc1c(Sc2ccccc2C(=O)O)[nH]c2ccccc12 [Compound 8]
[1]; [5]
  IC50: 37.3 ± 3.58 µM
[2]; [7]
  IC50: 43.3 ± 6.51 µM
Cytotoxicity assay (MTT)
  CC50 at 72 h: > 100 µM
[3]
  activity at 0.5 µM: 102 ± 1.71%
[4]
  Parasitemia (%) Treatment with compound (500nM) + Melatonin (100nM): 133.5 ± 8.06%

## COC(=O)Cc1c(Sc2ncccn2)[nH]c2ccccc12 [Compound 10]
[1]; [5]
  IC50: 54.9 ± 2.25 µM
[2]; [7]
  IC50: 43.6 ± 3.06 µM
Cytotoxicity assay (MTT)
  CC50 at 72 h: > 100 µM
[3]
  activity at 0.5 µM: 101 ± 2.14%
[4]
  Parasitemia (%) Treatment with compound (500nM) + Melatonin (100nM): 130.2 ± 6.02%

## COC(=O)Cc1c(SCc2ccccc2)[nH]c2ccccc12 [Compound 14]
[1]; [5]
  IC50: 20.9 ± 2.97 µM
[2]; [7]
  IC50: 37.1 ± 7.66 µM
Cytotoxicity assay (MTT)
  CC50 at 72 h: 23.7 ± 8.54 µM
[3]
  activity at 0.5 µM: 97.8 ± 3.41%
[4]
  Parasitemia (%) Treatment with compound (500nM) + Melatonin (100nM): 128.5 ± 4.13%

## COC(=O)Cc1c(SC(C)(C)C)[nH]c2ccccc12 [Compound 16]
[1]; [5]
  IC50: 31.7 ± 5.09 µM
[2]; [7]
  IC50: 48.5 ± 2.88 µM
Cytotoxicity assay (MTT)
  CC50 at 72 h: 26.5 ± 8.7 µM
[3]
  effect on parasitemia (in words): led to an increase in parasitemia
  increase in parasitemia: 11.2%
  activity at 0.5 µM: 112 ± 1.76%
[4]
  Parasitemia (%) Treatment with compound (500nM) + Melatonin (100nM): 127.4 ± 4.10%

## CCSc1[nH]c2ccccc2c1CC(=O)OC [Compound 17]
[1]; [5]
  IC50: 25 ± 2.9 µM
[2]; [7]
  IC50: 35.4 ± 1.56 µM
Cytotoxicity assay (MTT)
  CC50 at 72 h: 26.5 ± 4.67 µM
[3]
  effect on parasitemia (in words): did not affect parasitemia
  activity at 0.5 µM: 98.6 ± 2.95%
[4]
  Parasitemia (%) Treatment with compound (500nM) + Melatonin (100nM): 123.6 ± 3.11%

## COC(=O)Cc1c(SC23CC4CC(CC(C4)C2)C3)[nH]c2ccccc12 [Compound 18]
[1]; [5]
  IC50: < 20 µM
[1]; [6]
  IC50: 13.5 ± 3.24 µM
[2]; [7]
  IC50: < 20 µM
[2]; [6]
  IC50: 15.7 ± 4.87 µM
Cytotoxicity assay (MTT)
  CC50 at 72 h: 16.8 ± 2.63 µM
[3]
  activity at 0.5 µM: 98 ± 2.61%
[4]
  Parasitemia (%) Treatment with compound (500nM) + Melatonin (100nM): 113.9 ± 2.90%
P. falciparum 3D7 strain
  stage-specific effect on blood-stage development: reduced the progress from rings to trophozoites; also recorded: affect ring to trophozoite progression

## COC(=O)Cc1c(SCCCCO)[nH]c2ccccc12 [Compound 19]
[1]; [5]
  IC50: 27.8 ± 2.03 µM
[2]; [7]
  IC50: 39.9 ± 1.61 µM
Cytotoxicity assay (MTT)
  CC50 at 72 h: 28.1 ± 5.46 µM
[3]
  activity at 0.5 µM: 100 ± 1.81%
[4]
  Parasitemia (%) Treatment with compound (500nM) + Melatonin (100nM): 118.5 ± 2.85%

## CCCCCCCCCCCCSc1[nH]c2cc(Cl)ccc2c1CC(=O)OC [Compound 21]
[1]; [5]
  IC50: < 20 µM
[1]; [6]
  IC50: 19.1 ± 1.78 µM
[2]; [7]
  IC50: < 20 µM
[2]; [6]
  IC50: 16.9 ± 4.66 µM
Cytotoxicity assay (MTT)
  CC50 at 72 h: > 100 µM
[3]
  effect on parasitemia (in words): led to an increase in parasitemia
  increase in parasitemia: 3.8%
  activity at 0.5 µM: 104.4 ± 1%
[4]
  Parasitemia (%) Treatment with compound (500nM) + Melatonin (100nM): 111.9 ± 2.78%

## COC(=O)Cc1c(Sc2ccccc2)[nH]c2ccc(OC)cc12 [Compound 25]
[1]; [5]
  IC50: 26.5 ± 4.87 µM
[2]; [7]
  IC50: 45.5 ± 4.84 µM
Cytotoxicity assay (MTT)
  CC50 at 72 h: 13.1 ± 3.74 µM
[3]
  effect on parasitemia (in words): led to an increase in parasitemia
  increase in parasitemia: 6.6%
  activity at 0.5 µM: 107 ± 2.46%
[4]; [8]
  effect on melatonin action on parasitemia (in words): did not potentiate or block the effect of melatonin on parasitemia
[4]
  Parasitemia (%) Treatment with compound (500nM) + Melatonin (100nM): 112.8 ± 2.93%

## c1ccc(Cc2c(Sc3ccccc3)[nH]c3ccccc23)cc1 [Compound 26]
[1]; [5]
  IC50: < 20 µM
[1]; [6]
  IC50: 13.5 ± 2.37 µM
[2]; [7]
  IC50: 35.8 ± 4.64 µM
Cytotoxicity assay (MTT)
  CC50 at 72 h: 34.7 ± 8.44 µM
[3]
  decrease in parasitemia: 7.94%
  activity at 0.5 µM: 92.7 ± 4.17%
[4]
  Parasitemia (%) Treatment with compound (500nM) + Melatonin (100nM): 110.4 ± 3.18%
P. falciparum 3D7 strain
  stage-specific effect on blood-stage development: reduced the progress from rings to trophozoites; also recorded: affect ring to trophozoite progression
